What was measured:
[1] = system: portal vein isolated from rat; assay: Test 1: Inhibition of the contraction induced by noradrenaline in portal vein isolated from rat; details: 0.5 h
Description: Test 1: Inhibition of the contraction induced by noradrenaline in portal vein isolated from rat.
Portal vein was extracted from adult male rats (between 200 and 250 g of body weight), which had been stunned by a blow in the head. Portal vein was installed into an isolated organ bath (Letica) containing a physiological saline solution (Hamilton et al., Br. J. Pharmacol., 1986, 88, 103-111) at 37 C and a gas bubbler (5% C02 and 95% 02). Contractions were induced by noradrenaline (3µM) and were reverted after thoroughly washing with physiological saline solution. Portal vein contraction was measured with an isometric force transducer and with an initial tension of 1 g. After two contractions with noradrenaline, performed in order to measure the tissue's basal response, the tested compounds were incubated for 30 minutes and a new contraction was induced.

[2] = system: Spontaneously hypertense rats; assay: Test 2: Lowering of the arterial pressure in conscious hypertense rats; assay type: in vivo, rat; details: caudal artery, 3 animals, value ± SEM
Description: Test 2: Lowering of the arterial pressure in conscious hypertense rats.
Spontaneously hypertense rats (between 200 and 250 g of body weight) of more than 8 weeks of age have been used. Diastolic and systolic arterial pressure of the rat was measured at the caudal artery using a special sphygnomanometer (Letica 5007 and 5007/4) attached to the animal's tail. To ensure rapid and reliable data, animals were placed in a heating plate at 37 °C, with the aim to produce a vasodilatation that ensured a better fixation of the rat tail to the transducer chamber. During the experiment, rats are conscious and fixed to a clamp. The tested products were administered orally. Arterial pressure was measured every 30 minutes and 10 minutes before the administration of the tested compound. The decrease of the arterial pressure was calculated for each compound at a dose of 1 mg/Kg, using 3 animals.

[3] = system: trachea isolated from guinea pig; assay: Test 3: Direct relaxation of the trachea isolated from guinea pig; details: 50% of the maximum relaxation, maximum = relaxation induced by isoproterenol at 1x10-6 M, cumulative addition
Description: Test 3 -Direct relaxation of the trachea isolated from guinea pig.
This test was performed according to the experimental model described by Emmerson, J. and Mackay, D. (J. Pharm. Pharmacol., 1979, 31, 798). Tracheas were extracted from male guinea pigs of 400 g of body weight, which had been stunned by a blow in the head. Then, tracheas were cut in zigzag and placed into an isolated organ bath (Letica) containing Krebs-Henseleit solution at 37 °C and were bubbled with carbogen (95% 02 and 5% C02). The relaxation of the trachea was measured using an isometric force transducer. The basal tension was 0.5 g.

Row | IC50 [1] | EC50 ([3]; Cavia porcellus) | EC50 [3] | SMILES | Pressure Decrease (mm Hg) ± SEM (1 mg/Kg p.o.) [2]
1 | 25 µM | 5.8 µM | – | CC1(C)C(=O)c2ccc(C#N)cc2[C@@H](Oc2ccccn2)[C@@H]1O (relative stereo) [Compound 11, Trans-2,2-dimethyl-3-hydroxy-1-oxo-4-(2-pyridyloxy)-1,2,3,4-tetrahydronaphthalen-6-carbonitrile] | 43.0 ± 16.0 mm Hg
2 | 23 µM | – | – | CC1(C)C(=O)c2ccc(C#N)cc2[C@@H](NC(=O)c2ccccn2)[C@@H]1O (relative stereo) [Compound 14, Trans-2,2-dimethyl-3-hydroxy-1-oxo-4-(2-pyridylcarbonylamino)-1,2,3,4-tetrahydronaphthalen-6-carbonitrile] | 71.7 ± 14.2 mm Hg
3 | 2.8 µM | 4.9 µM | – | CC1(C)C(=O)c2ccc(C#N)cc2[C@@H](NC(=O)c2cccnc2)[C@@H]1O (relative stereo) [Compound 15, Trans-2,2-dimethyl-3-hydroxy-1-oxo-4-(3-pyridylcarbonylamino)-1,2,3,4-tetrahydronaphthalen-6-carbonitrile] | 50.0 ± 9.8 mm Hg
4 | – | 2.1 µM | – | CC1(C)C(=O)c2ccc(C#N)cc2[C@@H](NC(=O)c2ccccc2)[C@@H]1O (relative stereo) [Compound 18, Trans-2,2-dimethyl-3-hydroxy-1-oxo-4-(phenylcarbonylamino)-1,2,3,4-tetrahydronaphthalen-6-carbonitrile] | 31.0 ± 11.9 mm Hg
5 | 12 µM | 0.3 µM | – | COc1ccc(C(=O)N[C@@H]2c3cc(C#N)ccc3C(=O)C(C)(C)[C@H]2O)cc1 (relative stereo) [Compound 19, Trans-2,2-dimethyl-3-hydroxy-4-(4-methoxyphenylcarbonylamino)-1-oxo-1,2,3,4-tetrahydronaphthalen-6-carbonitrile] | 46.7 ± 8.6 mm Hg
6 | – | 1.8 µM | – | CC(=NC#N)NC1c2cc(C#N)ccc2C(=O)C(C)(C)C1O (stereo not drawn) [Compound 22, Trans-4-(N-cyanoacetimidoylamino)-2,2-dimethyl-3-hydroxy-1-oxo-1,2,3,4-tetrahydronaphthalen-6-carbonitrile] | –
7 | 3.7 µM | 4.4 µM | – | CC1(C)C(=O)c2ccc(C#N)cc2C(Nc2cc(Cl)ncn2)C1O (stereo not drawn) [Compound 23] | 45.5 ± 11.5 mm Hg

Second part, the compound before the results:

Row | SMILES | IC50 [1] | EC50 ([3]; Cavia porcellus) | EC50 [3] | Pressure Decrease (mm Hg) ± SEM (1 mg/Kg p.o.) [2]
8 | Cn1nc(O[C@@H]2c3cc(C#N)ccc3C(=O)C(C)(C)[C@H]2O)ccc1=O (racemic) [Compound 2, Rac-Trans-2,2-dimethyl-3-hydroxy-4-(6-hydroxy-1-methyl-3-pyridazinyloxy)-1-oxo-1,2,3,4-tetrahydronaphthalen-6-carbonitrile] | 2.8 µM | 0.31 µM | – | 112.0 ± 1.0 mm Hg
9 | CC1(C)C(=O)c2ccc(C#N)cc2[C@@H](Oc2ccc(O)nn2)[C@@H]1O (relative stereo) [Compound 1, Trans-2,2-dimethyl-3-hydroxy-4-(6-hydroxy-3-pyridazinyloxy)-1-oxo-1,2,3,4-tetrahydronaphthalen-6-carbonitrile] | 8.8 µM | 5.2 µM | – | 116.0 ± 5.9 mm Hg
10 | C=CCn1nc(O[C@@H]2c3cc(C#N)ccc3C(=O)C(C)(C)[C@H]2O)ccc1=O (relative stereo) [Compound 5, Trans-2,2-dimethyl-3-hydroxy-4-[6-hydroxy-1-(2-propenyl)-3-pyridazinyloxy]-1-oxo-1,2,3,4-tetrahydronaphthalen-6-carbonitrile] | 14 µM | 3.3 µM | – | 20.5 ± 0.5 mm Hg
11 | CC1(C)C(=O)c2ccc(Br)cc2[C@@H](Oc2ccc(O)nn2)[C@@H]1O (relative stereo) [Compound 8, Trans-6-bromo-2,2-dimethyl-3-hydroxy-4-(6-hydroxy-3-pyridazinyloxy)-1,2,3,4-tetrahydronaphthalen-1-one] | 0.8 µM | 15.6 µM | – | 46.5 ± 0.3 mm Hg
12 | CC1(C)C(=O)c2ccc(C#N)cc2[C@@H](OC2=CC(=O)CC2)[C@@H]1O (relative stereo) [Compound 12, Trans-2,2-dimethyl-3-hydroxy-1-oxo-4-(3-oxo-1-cyclopent-1-enyloxy)-1,2,3,4-tetrahydronaphthalen-6-carbonitrile] | – | – | – | 50.0 ± 16.0 mm Hg
13 | CC1(C)C(=O)c2ccc(C#N)cc2[C@@H](NC(=O)c2ccoc2)[C@@H]1O (relative stereo) [Compound 17, Trans-2,2-dimethyl-4-(3-furylcarbonylamino)-3-hydroxy-1-oxo-1,2,3,4-tetrahydronaphthalen-6-carbonitrile] | – | – | – | 58.0 ± 17.5 mm Hg
14 | Cn1nc(O[C@@H]2c3cc(C#N)ccc3C(=O)C(C)(C)[C@H]2O)ccc1=O (single isomer, unassigned) [Compound 3, (-)-Trans-2,2-dimethyl-3-hydroxy-4-(6-hydroxy-1-methyl-3-pyridazlnyloxy)-1-oxo-1,2,3,4-tetrahydronaphthalen-6-carbonitrile] | – | – | 0.3 µM | –
15 | Cn1nc(O[C@@H]2c3cc(C#N)ccc3C(=O)C(C)(C)[C@H]2O)ccc1=O (single isomer, unassigned) [Compound 4, ( + ).Trans-2,2-d i methyl-3-hyd roxy-4-(6-hydroxy-1-methyl-3-pyridazinyloxy)-1-oxo-1,2,3,4-tetrahydronaphthalen-6-carbonitrile] | – | – | 4.6 µM | –

Source: EP0525768A1, “Tetralones with pharmacological activity” (J. URIACH & CIA. S.A., priority 1991, dated 1993)
